Assay results from US20110178041A1, “HETEROCYCLIC BIARYL DERIVATIVE AND PDE INHIBITOR COMPRISING SAME AS ACTIVE INGREDIENT” (priority 2008, published 2011).

Experiments:
[1] = tested on: LPS-induced pulmonary inflammation (total leukocytes in BALF); assay: LPS-induced pulmonary inflammation in rats; type: in vivo; conditions: Leukocyte; rat, 3 mg/kg oral one hour before LPS inhalation, BALF 3 hours after LPS; read-out: rate of inhibition of total number of leukocytes in BALF
Protocol: One hour before the inhalation of lipopolysaccharide from E. coli serotype 055:B5 (LPS), each candidate compound was orally administered to each test rat in a dose of 3 mg/kg, and then the test animal was allowed to inhale an LPS solution (50 mL) over 30 minutes, while the solution was atomized using a nebulizer. After 3 hours from the LPS-inhalation, the rats were euthanized by the administration of a 20% urethane solution (5 ml/rat, i.p.). The bronchial cannula was inserted through the trachea. Broncoalveolar lavage was performed by injecting 5 ml physiological saline, three consecutive times using a 5 mL volume syringe. The operations were repeated twice and these physiological saline samples were recovered as broncoalveolar lavage fluid (BALF). Each of the BALF thus recovered was centrifuged at 1200 rpm and 4° C. for 10 minutes (Hirtachi; himac […]), the resulting residue was again suspended in 10 mL of 0.1% bovine serum albumin-containing physiological saline, an equivalent volume of Turk's diluting fluid was added to the suspension to thus stain the leukocytes present therein and the total number of leukocytes was determined under the microscopic observation to thus calculate the rate of inhibition.

[2] = target: T1, PDE4B catalytic zone (PDE4Bcat) (Homo sapiens, UniProt Q07343); assay: Phosphodiesterase 4 inhibitory activity ([3H]-cAMP, recombinant PDE4Bcat); type: biochemical; conditions: 30° C. 20 minutes, read-out: IC50 (μmol/L) PDE4
T1 construct: made in house; host or cells: Sf9 insect cells (baculovirus, Bac-to-Bac / Gateway)

[3] = target: T2, PDE3A catalytic zone (PDE3Acat) (Homo sapiens, UniProt Q14432); assay: Phosphodiesterase 3-inhibitory activity ([3H]-cAMP, recombinant PDE3Acat); type: biochemical; conditions: 30° C. 20 minutes, read-out: IC50 value, PDE3
T2 construct: made in house; host or cells: Sf9 insect cells (baculovirus, Bac-to-Bac / Gateway)
T2 sequence (Q14432 674-1093 limits assumed): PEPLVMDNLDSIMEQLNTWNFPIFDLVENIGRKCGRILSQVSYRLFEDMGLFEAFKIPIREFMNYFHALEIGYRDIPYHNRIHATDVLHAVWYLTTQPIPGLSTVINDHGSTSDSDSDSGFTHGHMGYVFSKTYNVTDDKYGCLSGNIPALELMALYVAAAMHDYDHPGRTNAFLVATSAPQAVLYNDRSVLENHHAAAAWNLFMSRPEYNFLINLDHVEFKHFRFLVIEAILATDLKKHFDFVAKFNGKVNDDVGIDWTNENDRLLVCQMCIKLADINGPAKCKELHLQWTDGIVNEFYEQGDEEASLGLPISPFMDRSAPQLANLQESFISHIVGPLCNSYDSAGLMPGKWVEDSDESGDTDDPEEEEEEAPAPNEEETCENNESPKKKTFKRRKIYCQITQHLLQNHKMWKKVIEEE

T1 sequence (Q07343 330-659 limits assumed): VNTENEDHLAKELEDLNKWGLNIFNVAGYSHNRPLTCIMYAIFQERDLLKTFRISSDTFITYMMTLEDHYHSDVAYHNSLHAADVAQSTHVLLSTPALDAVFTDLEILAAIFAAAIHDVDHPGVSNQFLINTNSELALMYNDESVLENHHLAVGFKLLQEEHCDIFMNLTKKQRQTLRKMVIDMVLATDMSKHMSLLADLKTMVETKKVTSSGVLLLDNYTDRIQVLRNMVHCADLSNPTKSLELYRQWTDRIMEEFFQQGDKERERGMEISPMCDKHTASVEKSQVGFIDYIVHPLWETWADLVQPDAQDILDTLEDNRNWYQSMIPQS

| IC50 [2] [µmol/L] | IC50 [3] [µM] | SMILES | inhibition in vivo at 3 mg/kg [1] [%] |
| --- | --- | --- | --- |
| < 0.01 | > 1 | COc1ccc(-c2ccc3c(=O)[nH]cc(Cl)c3c2)c2cc(C(F)(F)F)nn12 [Example 60, 4-Chloro-6-(7-methoxy-2-trifluoromethylpyrazolo[1,5-a]pyridin-4-yl)isoquinolin-1(2H)-one] | ≥ 60 |
| < 0.01 | – | COc1ccc(-c2ccc3c(c2)CCNC3=O)c2c(Cl)c(C(F)(F)F)nn12 [Example 62, 6-(3-Chloro-7-methoxy-2-trifluoromethylpyrazolo[1,5-a]pyridin-4-yl)-3,4-dihydroisoquinolin-1(2H)-one] | ≥ 60 |
| < 0.01 | > 1 | CNc1ccc(-c2ccc3c(c2)CCNC3=O)c2cc(C(F)(F)F)nn12 [Example 63, 6-(7-Methylamino-2-trifluoromethylpyrazolo[1,5-a]pyridin-4-yl)-3,4-dihydroisoquinolin-1(2H)-one] | ≥ 60 |
| < 0.01 | > 1 | COc1ccc(-c2ccc3[nH]c(=O)ccc3c2)n2c(Cl)c(C(F)(F)F)nc12 [Example 89, 6-(3-Chloro-8-methoxy-2-(trifluoromethyl)imidazo[1,2-a]pyridin-5-yl)quinolin-2(1H)-one] | ≥ 60 |
| < 0.01 | > 1 | CNc1ccc(-c2ccc3[nH]c(=O)ccc3c2)n2c(Cl)c(C(F)(F)F)nc12 [Example 142, 6-(3-Chloro-8-methylamino-2-trifluoromethylimidazo[1,2-a]pyridin-5-yl)quinolin-2(1H)-one] | ≥ 60 |
| < 0.01 | > 1 | CNc1ccc(-c2ccc3c(c2)CCNC3=O)n2c(Cl)c(C(F)(F)F)nc12 [Example 143, 6-(3-Chloro-8-methylamino-2-trifluoromethylimidazo[1,2-a]pyridin-5-yl)-3,4-dihydroisoquinolin-1(2H)-one] | ≥ 60 |
| < 0.01 | – | CNc1ccc(-c2ccc3c(=O)[nH]cc(Cl)c3c2)n2c(Cl)c(C(F)(F)F)nc12 [Example 145, 4-Chloro-6-(3-chloro-8-(methylamino)-2-trifluoromethylimidazo[1,2-a]pyridin-5-yl)isoquinolin-1(2H)-one] | – |
| 0.01 to 0.1 | – | Nc1ccc(-c2ccc3c(=O)[nH]cc(Cl)c3c2)n2cc(C(F)(F)F)nc12 [Example 146, 6-(8-Amino-2-trifluoromethylimidazo[1,2-a]pyridin-5-yl)-4-chloro-isoquinolin-1(2H)-one] | – |

The next lines start with the compound.

| SMILES | IC50 [2] [µmol/L] | IC50 [3] [µM] | inhibition in vivo at 3 mg/kg [1] [%] |
| --- | --- | --- | --- |
| COc1ccc(-c2ccc3c(c2)CCNC3=O)c2cc(C(F)(F)F)nn12 [Example 58, 6-(7-Methoxy-2-trifluoromethylpyrazolo[1,5-a]pyridin-4-yl)-3,4-dihydroisoquinolin-1(2H)-one] | 0.01 to 0.1 | > 1 | ≥ 60 |
| COc1ccc(-c2ccc3c(c2)CNC3=O)c2cc(C(F)(F)F)nn12 [Example 59, 5-(7-Methoxy-2-trifluoromethylpyrazolo[1,5-a]pyridin-4-yl)isoindolin-1-one] | 0.01 to 0.1 | > 1 | ≥ 60 |
| CNc1ccc(-c2ccc3[nH]c(=O)ccc3c2)c2cc(C(F)(F)F)nn12 [Example 64, 6-(7-Methylamino-2-trifluoromethylpyrazolo[1,5-a]pyridin-4-yl)quinolin-2(1H)-one] | < 0.01 | > 1 | ≥ 60 |
| COc1ccc(-c2ccc3c(c2)CCC(=O)N3C)c2cc(C(F)(F)F)nn12 [Example 102, 6-(7-Methoxy-2-trifluoromethylpyrazolo[1,5-a]pyridin-4-yl)-1-methyl-3,4-dihydroquinolin-2(1H)-one] | 0.01 to 0.1 | > 1 | ≥ 60 |
| COc1ccc(-c2ccc3c(ccc(=O)n3C)c2)c2c(Cl)c(C(F)(F)F)nn12 [Example 115, 6-(3-Chloro-7-methoxy-2-trifluoromethylpyrazolo[1,5-a]pyridin-4-yl)-1-methylquinolin-2(1H)-one] | < 0.01 | > 1 | ≥ 60 |
| COc1ccc(-c2ccc3c(c2)CCNC3=O)c2cc(C3CC3)nn12 [Example 121, 6-(2-Cyclopropyl-7-methoxypyrazolo[1,5-a]pyridin-4-yl)-3,4-dihydroisoquinolin-1(2H)-one] | 0.01 to 0.1 | > 1 | ≥ 60 |
